PubChem BioAssay (NCI)
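Values below derive from 48-hour exposures of cells grown in 96-well plates, with endpoints linearly interpolated between the two concentrations bracketing the appropriate inhibition level. Abbreviation: GI50, concentration required for 50% inhibition of growth. The concentration for full growth arrest is given as TGI.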

How the values were obtained:
Test in all cases: DTP human tumour cell line panel, 48 h
[1] = system: 786-0 renal
[2] = system: A498 renal
[3] = system: A549 NSCLC
[4] = system: ACHN renal
[5] = system: BT-549 breast
[6] = system: CAKI-1 renal
[7] = system: CCRF-CEM leukemia
[8] = system: COLO 205 colon
[9] = system: DU-145 prostate
[10] = system: EKVX NSCLC
[11] = system: HCC-2998 colon
[12] = system: HCT-116 colon
[13] = system: HCT-15 colon
[14] = system: HL-60(TB) leukemia
[15] = system: HOP-62 NSCLC
[16] = system: HOP-92 NSCLC
[17] = system: HS 578T breast
[18] = system: HT29 colon
[19] = system: IGROV1 ovarian
[20] = system: KM12 colon
[21] = system: LOX IMVI melanoma
[22] = system: MALME-3M melanoma
[23] = system: MCF7 breast
[24] = system: MDA-MB-231 breast
[25] = system: MDA-MB-435
[26] = system: MOLT-4 leukemia
[27] = system: NCI-H226 lung
[28] = system: NCI-H23 lung
[29] = system: NCI-H460 lung
[30] = system: NCI-H522 lung
[31] = system: NCI/ADR-RES ovarian
[32] = system: OVCAR-3 ovarian
[33] = system: OVCAR-4 ovarian
[34] = system: OVCAR-5 ovarian
[35] = system: OVCAR-8 ovarian
[36] = system: PC-3 prostate
[37] = system: RPMI-8226 leukemia
[38] = system: RXF 393 renal
[39] = system: SF-268 CNS
[40] = system: SF-295 CNS
[41] = system: SF-539 CNS
[42] = system: SK-MEL-2 melanoma
[43] = system: SK-MEL-28 melanoma
[44] = system: SK-MEL-5 melanoma
[45] = system: SK-OV-3 ovarian
[46] = system: SN12C renal
[47] = system: SNB-19 CNS
[48] = system: SNB-75 CNS
[49] = system: SR leukemia
[50] = system: SW-620 colon
[51] = system: T-47D breast
[52] = system: TK-10 renal
[53] = system: U251 CNS
[54] = system: UACC-257 melanoma
[55] = system: UACC-62 melanoma
[56] = system: UO-31 renal
[57] = system: K-562 leukemia
[58] = system: M14 melanoma

## C[C@H]1CN(C2COC2)CCN1c1ccc(Nc2cc(-c3ccnc(N4CCn5c(cc6c5CC(C)(C)C6)C4=O)c3CO)cn(C)c2=O)nc1
[1]
  GI50: 19.5 µM
  TGI: > 100 µM
[2]
  GI50: 10.3 µM
  TGI: 33.9 µM
[3]
  GI50: 56.8 µM
  TGI: > 100 µM
[4]
  GI50: 30.2 µM
  TGI: > 100 µM
[5]
  GI50: 17.7 µM
  TGI: 55.1 µM
[6]
  GI50: 27.9 µM
  TGI: > 100 µM
[7]
  GI50: 21.4 µM
  TGI: > 100 µM
[8]
  GI50: 27.1 µM
  TGI: > 100 µM
[9]
  GI50: 45.9 µM
  TGI: > 100 µM
[10]
  GI50: > 100 µM
  TGI: > 100 µM
[11]
  GI50: 49.9 µM
  TGI: > 100 µM
[12]
  GI50: 38.4 µM
  TGI: > 100 µM
[13]
  GI50: 47 µM
  TGI: > 100 µM
[14]
  GI50: 16.6 µM
  TGI: 47.2 µM
[15]
  GI50: 39.1 µM
  TGI: > 100 µM
[16]
  GI50: 12.6 µM
  TGI: 64.6 µM
[17]
  GI50: 27.7 µM
  TGI: > 100 µM
[18]
  GI50: 23.8 µM
  TGI: > 100 µM
[19]
  GI50: 19.7 µM
  TGI: > 100 µM
[20]
  GI50: 56.8 µM
  TGI: > 100 µM
[21]
  GI50: 29.8 µM
  TGI: > 100 µM
[22]
  GI50: > 100 µM
  TGI: > 100 µM
[23]
  GI50: 28.7 µM
  TGI: > 100 µM
[24]
  GI50: 26.1 µM
  TGI: > 100 µM
[25]
  GI50: 26.4 µM
  TGI: > 100 µM
[26]
  GI50: 14.3 µM
  TGI: > 100 µM
[27]
  GI50: 19.6 µM
  TGI: 46.5 µM
[28]
  GI50: > 100 µM
  TGI: > 100 µM
[29]
  GI50: 61.1 µM
  TGI: > 100 µM
[30]
  GI50: 56.3 µM
  TGI: > 100 µM
[31]
  GI50: 47.8 µM
  TGI: > 100 µM
[32]
  GI50: 37.4 µM
  TGI: > 100 µM
[33]
  GI50: 22.4 µM
  TGI: > 100 µM
[34]
  GI50: 73 µM
  TGI: > 100 µM
[35]
  GI50: 54.3 µM
  TGI: > 100 µM
[36]
  GI50: 36.6 µM
  TGI: > 100 µM
[37]
  GI50: 13.1 µM
  TGI: 60.7 µM
[38]
  GI50: 40.6 µM
  TGI: > 100 µM
[39]
  GI50: 29.5 µM
  TGI: > 100 µM
[40]
  GI50: 68.6 µM
  TGI: > 100 µM
[41]
  GI50: 21.4 µM
  TGI: 66.9 µM
[42]
  GI50: 74.2 µM
  TGI: > 100 µM
[43]
  GI50: 39.8 µM
  TGI: > 100 µM
[44]
  GI50: 31.2 µM
  TGI: > 100 µM
[45]
  GI50: > 100 µM
  TGI: > 100 µM
[46]
  GI50: 49.9 µM
  TGI: > 100 µM
[47]
  GI50: 51.2 µM
  TGI: > 100 µM
[48]
  GI50: 15.5 µM
  TGI: > 100 µM
[49]
  GI50: 23.1 µM
  TGI: > 100 µM
[50]
  GI50: 47.8 µM
  TGI: > 100 µM
[51]
  GI50: 19.2 µM
  TGI: > 100 µM
[52]
  GI50: 38.7 µM
  TGI: > 100 µM
[53]
  GI50: 44.8 µM
  TGI: > 100 µM
[54]
  GI50: 27.6 µM
  TGI: 58.1 µM
[55]
  GI50: 23.2 µM
  TGI: 82.3 µM
[56]
  GI50: 21.7 µM
  TGI: > 100 µM

## CN(C)CCCn1c2c(c3cc4c(cc3c1=O)OCO4)C(=O)c1ccccc1-2
[1]
  GI50: 0.0131 µM
  TGI: 1.96 µM
[3]
  GI50: 0.105 µM
  TGI: 2.43 µM
[4]
  GI50: < 0.0213 µM
  TGI: 0.234 µM
[5]
  GI50: 5.52 µM
  TGI: 29 µM
[6]
  GI50: 3.01 µM
  TGI: 9.4 µM
[7]
  GI50: 0.192 µM
  TGI: 3.51 µM
[8]
  GI50: 7.61 µM
  TGI: > 100 µM
[9]
  GI50: 3.08 µM
  TGI: > 27.5 µM
[10]
  GI50: 5.55 µM
  TGI: 34.9 µM
[11]
  GI50: 0.121 µM
[12]
  TGI: 0.384 µM
[13]
  GI50: < 0.0275 µM
  TGI: 4.35 µM
[14]
  GI50: 3.35 µM
  TGI: 20.4 µM
[15]
  GI50: < 0.0318 µM
  TGI: 1.43 µM
[16]
  GI50: 0.713 µM
  TGI: 6.37 µM
[17]
  GI50: 11.5 µM
  TGI: 43.4 µM
[18]
  GI50: 0.0472 µM
  TGI: > 100 µM
[19]
  GI50: 3.33 µM
  TGI: 12.6 µM
[57]
  GI50: 0.0793 µM
[20]
  GI50: 2.89 µM
  TGI: 14.5 µM
[21]
  GI50: 0.0635 µM
  TGI: 0.557 µM
[58]
  GI50: 0.0984 µM
  TGI: 1.38 µM
[23]
  GI50: 6.84 µM
  TGI: > 26.8 µM
[24]
  GI50: 0.465 µM
  TGI: 4.29 µM
[25]
  GI50: 1.49 µM
  TGI: 5.81 µM
[26]
  GI50: < 0.0218 µM
  TGI: 0.792 µM
[27]
  GI50: 3.25 µM
  TGI: 11.3 µM
[28]
  GI50: 0.231 µM
[29]
  GI50: 8.82 µM
  TGI: > 32.8 µM
[30]
  GI50: 4.59 µM
  TGI: 35.2 µM
[32]
  GI50: 2.36 µM
  TGI: 6.46 µM
[33]
  GI50: 0.715 µM
  TGI: > 23.3 µM
[34]
  GI50: 11.1 µM
  TGI: 45.7 µM
[35]
  GI50: 0.0576 µM
  TGI: 0.922 µM
[36]
  GI50: 0.365 µM
  TGI: 3.59 µM
[37]
  GI50: 0.208 µM
  TGI: 2.82 µM
[38]
  GI50: 0.852 µM
  TGI: 8.93 µM
[39]
  GI50: 13.9 µM
  TGI: > 44.4 µM
[40]
  GI50: 3.12 µM
  TGI: 12.5 µM
[41]
  GI50: 3.57 µM
  TGI: 13.4 µM
[42]
  GI50: 18.4 µM
  TGI: > 59.5 µM
[43]
  GI50: 4.68 µM
  TGI: > 100 µM
[44]
  GI50: 1.93 µM
  TGI: 7.07 µM
[45]
  GI50: 4.99 µM
  TGI: > 39.3 µM
[46]
  GI50: 0.203 µM
  TGI: 3.16 µM
[47]
  GI50: 2.84 µM
  TGI: > 100 µM
[48]
  GI50: 5.89 µM
  TGI: 37.4 µM
[49]
  TGI: 0.0486 µM
[50]
  GI50: 0.85 µM
  TGI: > 39.9 µM
[51]
  GI50: 22.7 µM
  TGI: > 100 µM
[52]
  GI50: 3.42 µM
  TGI: 17.9 µM
[53]
  GI50: 0.081 µM
  TGI: 3.5 µM
[54]
  GI50: 1.54 µM
  TGI: 14.9 µM
[55]
  GI50: 1.05 µM
  TGI: 9.57 µM
[56]
  GI50: 4.19 µM
  TGI: 39.9 µM
